Source: PubChem BioAssay (NCI)
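Values below derive from 48-hour exposures of cells grown in 96-well plates, with endpoints linearly interpolated between the two concentrations bracketing the appropriate inhibition level. Definition used: TGI = concentration required for complete inhibition of growth.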

What was measured:
Test in all cases: DTP human tumour cell line panel, 48 h
TK-10 renal = system: TK-10 renal
K-562 leukemia = system: K-562 leukemia
HOP-62 NSCLC = system: HOP-62 NSCLC
OVCAR-5 ovarian = system: OVCAR-5 ovarian
UO-31 renal = system: UO-31 renal
NCI-H522 lung = system: NCI-H522 lung
MDA-MB-231 breast = system: MDA-MB-231 breast
CCRF-CEM leukemia = system: CCRF-CEM leukemia
SF-268 CNS = system: SF-268 CNS
HS 578T breast = system: HS 578T breast
UACC-257 melanoma = system: UACC-257 melanoma
NCI-H23 lung = system: NCI-H23 lung
OVCAR-8 ovarian = system: OVCAR-8 ovarian
MDA-N = system: MDA-N
DU-145 prostate = system: DU-145 prostate
UACC-62 melanoma = system: UACC-62 melanoma
IGROV1 ovarian = system: IGROV1 ovarian
SF-539 CNS = system: SF-539 CNS
A498 renal = system: A498 renal
SK-MEL-28 melanoma = system: SK-MEL-28 melanoma
EKVX NSCLC = system: EKVX NSCLC
SW-620 colon = system: SW-620 colon
SNB-75 CNS = system: SNB-75 CNS
SK-MEL-5 melanoma = system: SK-MEL-5 melanoma
HT29 colon = system: HT29 colon
OVCAR-4 ovarian = system: OVCAR-4 ovarian
NCI/ADR-RES ovarian = system: NCI/ADR-RES ovarian
HCC-2998 colon = system: HCC-2998 colon
MOLT-4 leukemia = system: MOLT-4 leukemia
NCI-H226 lung = system: NCI-H226 lung
ACHN renal = system: ACHN renal
SK-MEL-2 melanoma = system: SK-MEL-2 melanoma
SNB-19 CNS = system: SNB-19 CNS
786-0 renal = system: 786-0 renal
HCT-116 colon = system: HCT-116 colon
LOX IMVI melanoma = system: LOX IMVI melanoma
PC-3 prostate = system: PC-3 prostate
CAKI-1 renal = system: CAKI-1 renal
HL-60(TB) leukemia = system: HL-60(TB) leukemia
T-47D breast = system: T-47D breast
SN12C renal = system: SN12C renal
MDA-MB-435 = system: MDA-MB-435
U251 CNS = system: U251 CNS
HCT-15 colon = system: HCT-15 colon
SF-295 CNS = system: SF-295 CNS
HOP-92 NSCLC = system: HOP-92 NSCLC
RPMI-8226 leukemia = system: RPMI-8226 leukemia
KM12 colon = system: KM12 colon
SK-OV-3 ovarian = system: SK-OV-3 ovarian
MCF7 breast = system: MCF7 breast
OVCAR-3 ovarian = system: OVCAR-3 ovarian
BT-549 breast = system: BT-549 breast
A549 NSCLC = system: A549 NSCLC
M14 melanoma = system: M14 melanoma
COLO 205 colon = system: COLO 205 colon
MALME-3M melanoma = system: MALME-3M melanoma
RXF 393 renal = system: RXF 393 renal
NCI-H460 lung = system: NCI-H460 lung
SR leukemia = system: SR leukemia

## C[C@H]1C(=O)O[C@@H]2CCN3CC=C(COC(=O)[C@](C)(O)[C@@]1(C)O)[C@H]23
TK-10 renal
  TGI: > 100 µM
K-562 leukemia
  TGI: > 100 µM
HOP-62 NSCLC
  TGI: > 100 µM
OVCAR-5 ovarian
  TGI: > 100 µM
UO-31 renal
  TGI: > 100 µM
NCI-H522 lung
  TGI: > 100 µM
MDA-MB-231 breast
  TGI: > 100 µM
CCRF-CEM leukemia
  TGI: > 100 µM
SF-268 CNS
  TGI: > 100 µM
HS 578T breast
  TGI: > 100 µM
UACC-257 melanoma
  TGI: > 100 µM
NCI-H23 lung
  TGI: > 100 µM
OVCAR-8 ovarian
  TGI: > 100 µM
MDA-N
  TGI: > 100 µM
DU-145 prostate
  TGI: > 100 µM
UACC-62 melanoma
  TGI: > 100 µM
IGROV1 ovarian
  TGI: > 100 µM
SF-539 CNS
  TGI: > 100 µM
A498 renal
  TGI: > 100 µM
SK-MEL-28 melanoma
  TGI: > 100 µM
EKVX NSCLC
  TGI: > 100 µM
SW-620 colon
  TGI: > 100 µM
SNB-75 CNS
  TGI: > 100 µM
SK-MEL-5 melanoma
  TGI: > 100 µM
HT29 colon
  TGI: > 100 µM
OVCAR-4 ovarian
  TGI: > 100 µM
NCI/ADR-RES ovarian
  TGI: > 100 µM
HCC-2998 colon
  TGI: > 100 µM
MOLT-4 leukemia
  TGI: > 100 µM
NCI-H226 lung
  TGI: > 100 µM
ACHN renal
  TGI: > 100 µM
SK-MEL-2 melanoma
  TGI: > 100 µM
SNB-19 CNS
  TGI: > 100 µM
786-0 renal
  TGI: > 100 µM
HCT-116 colon
  TGI: > 100 µM
LOX IMVI melanoma
  TGI: > 100 µM
PC-3 prostate
  TGI: > 100 µM
CAKI-1 renal
  TGI: > 100 µM
HL-60(TB) leukemia
  TGI: > 100 µM
T-47D breast
  TGI: > 100 µM
SN12C renal
  TGI: > 100 µM
MDA-MB-435
  TGI: > 100 µM
U251 CNS
  TGI: > 100 µM
HCT-15 colon
  TGI: > 100 µM
SF-295 CNS
  TGI: > 100 µM
HOP-92 NSCLC
  TGI: > 100 µM
RPMI-8226 leukemia
  TGI: > 100 µM
KM12 colon
  TGI: > 100 µM
SK-OV-3 ovarian
  TGI: > 100 µM
MCF7 breast
  TGI: > 100 µM
OVCAR-3 ovarian
  TGI: > 100 µM
BT-549 breast
  TGI: > 100 µM
A549 NSCLC
  TGI: > 100 µM
M14 melanoma
  TGI: > 100 µM
COLO 205 colon
  TGI: > 100 µM

## CC(=O)OCC1OC(OC2CC3C(C)(C)C(O)CC[C@]3(C)C3CCC45CC4(CCC5[C@@H](C)CC(O)C(O)C(C)(C)O)[C@]23C)C(O)C(O)C1O (some centres undefined)
TK-10 renal
  TGI: > 10 µM
MALME-3M melanoma
  TGI: > 10 µM
K-562 leukemia
  TGI: > 10 µM
HOP-62 NSCLC
  TGI: > 10 µM
OVCAR-5 ovarian
  TGI: > 10 µM
UO-31 renal
  TGI: > 10 µM
NCI-H522 lung
  TGI: > 10 µM
MDA-MB-231 breast
  TGI: > 10 µM
CCRF-CEM leukemia
  TGI: > 10 µM
SF-268 CNS
  TGI: > 10 µM
HS 578T breast
  TGI: > 10 µM
UACC-257 melanoma
  TGI: > 10 µM
NCI-H23 lung
  TGI: > 10 µM
OVCAR-8 ovarian
  TGI: > 10 µM
MDA-N
  TGI: > 10 µM
DU-145 prostate
  TGI: > 10 µM
UACC-62 melanoma
  TGI: > 10 µM
IGROV1 ovarian
  TGI: > 10 µM
SF-539 CNS
  TGI: > 10 µM
A498 renal
  TGI: > 10 µM
SK-MEL-28 melanoma
  TGI: > 10 µM
EKVX NSCLC
  TGI: > 10 µM
SW-620 colon
  TGI: > 10 µM
SNB-75 CNS
  TGI: > 10 µM
SK-MEL-5 melanoma
  TGI: > 10 µM
HT29 colon
  TGI: > 10 µM
RXF 393 renal
  TGI: > 10 µM
OVCAR-4 ovarian
  TGI: > 10 µM
NCI/ADR-RES ovarian
  TGI: > 10 µM
HCC-2998 colon
  TGI: > 10 µM
MOLT-4 leukemia
  TGI: > 10 µM
NCI-H226 lung
  TGI: > 10 µM
ACHN renal
  TGI: > 10 µM
SK-MEL-2 melanoma
  TGI: > 10 µM
SNB-19 CNS
  TGI: > 10 µM
786-0 renal
  TGI: > 10 µM
HCT-116 colon
  TGI: > 10 µM
LOX IMVI melanoma
  TGI: > 10 µM
PC-3 prostate
  TGI: > 10 µM
CAKI-1 renal
  TGI: > 10 µM
HL-60(TB) leukemia
  TGI: > 10 µM
T-47D breast
  TGI: > 10 µM
SN12C renal
  TGI: > 10 µM
MDA-MB-435
  TGI: > 10 µM
U251 CNS
  TGI: > 10 µM
HCT-15 colon
  TGI: > 10 µM
SF-295 CNS
  TGI: > 10 µM
HOP-92 NSCLC
  TGI: > 10 µM
RPMI-8226 leukemia
  TGI: > 10 µM
NCI-H460 lung
  TGI: > 10 µM
KM12 colon
  TGI: > 10 µM
SK-OV-3 ovarian
  TGI: > 10 µM
MCF7 breast
  TGI: > 10 µM
OVCAR-3 ovarian
  TGI: > 10 µM
BT-549 breast
  TGI: > 10 µM
A549 NSCLC
  TGI: > 10 µM
M14 melanoma
  TGI: > 10 µM
COLO 205 colon
  TGI: > 10 µM

## O=C1NI(C#Cc2ccccc2)c2ccccc21
TK-10 renal
  TGI: > 100 µM
MALME-3M melanoma
  TGI: > 100 µM
K-562 leukemia
  TGI: > 100 µM
HOP-62 NSCLC
  TGI: > 100 µM
UO-31 renal
  TGI: > 100 µM
MDA-MB-231 breast
  TGI: > 100 µM
CCRF-CEM leukemia
  TGI: 88.9 µM
SF-268 CNS
  TGI: > 100 µM
HS 578T breast
  TGI: > 100 µM
UACC-257 melanoma
  TGI: > 100 µM
NCI-H23 lung
  TGI: > 100 µM
OVCAR-8 ovarian
  TGI: > 100 µM
MDA-N
  TGI: > 100 µM
DU-145 prostate
  TGI: > 100 µM
SR leukemia
  TGI: > 100 µM
UACC-62 melanoma
  TGI: > 100 µM
IGROV1 ovarian
  TGI: > 100 µM
SF-539 CNS
  TGI: > 100 µM
A498 renal
  TGI: > 100 µM
SK-MEL-28 melanoma
  TGI: > 100 µM
SW-620 colon
  TGI: > 100 µM
SK-MEL-5 melanoma
  TGI: > 100 µM
HT29 colon
  TGI: > 100 µM
OVCAR-4 ovarian
  TGI: > 100 µM
NCI/ADR-RES ovarian
  TGI: > 100 µM
MOLT-4 leukemia
  TGI: > 100 µM
NCI-H226 lung
  TGI: > 100 µM
SK-MEL-2 melanoma
  TGI: > 100 µM
SNB-19 CNS
  TGI: > 100 µM
786-0 renal
  TGI: > 100 µM
HCT-116 colon
  TGI: > 100 µM
LOX IMVI melanoma
  TGI: > 100 µM
PC-3 prostate
  TGI: 79.6 µM
CAKI-1 renal
  TGI: > 100 µM
HL-60(TB) leukemia
  TGI: > 100 µM
T-47D breast
  TGI: > 100 µM
SN12C renal
  TGI: > 100 µM
MDA-MB-435
  TGI: > 100 µM
U251 CNS
  TGI: > 100 µM
HCT-15 colon
  TGI: > 100 µM
SF-295 CNS
  TGI: > 100 µM
RPMI-8226 leukemia
  TGI: > 100 µM
NCI-H460 lung
  TGI: > 100 µM
KM12 colon
  TGI: > 100 µM
SK-OV-3 ovarian
  TGI: 95.1 µM
MCF7 breast
  TGI: 94.3 µM
OVCAR-3 ovarian
  TGI: > 100 µM
BT-549 breast
  TGI: > 100 µM
A549 NSCLC
  TGI: > 100 µM
M14 melanoma
  TGI: > 100 µM
COLO 205 colon
  TGI: > 100 µM
